Results on 1 compound are retold here after patent US20230129137A1, “USE OF TT-10-LOADED NANOPARTICLES FOR CARDIAC REPAIR” (THE UAB RESEARCH FOUNDATION, priority 2021, published 2023).

In one test the test system is mouse MI. Particulars: intraperitoneal injections of TT-10, mice after MI; cited from earlier work.
The next test relates to Yap. The test is described as follows: nuclear Yap in hiPSC-CMs (immunofluorescence). The class given is cell-based, human. Particulars: 10 μM TT-10. The method, then:
(§1) FIGS. 2A-2B show TT-10 enhanced survival and nuclear Yap levels in cultured hiPSC-CMs. (FIG. 2A) Apoptosis was evaluated via TUNEL staining and quantified as the percentage of TUNEL-positive cells. (FIG. 2B) hiPSC-CMs were immunofluorescently costained for Yap, and the proportion of cells with Yap-positive nuclei is presented as a percentage. Scale bar: 20 μm. All experiments were repeated 5 times. *P<0.01, Student's t test.
(§2) The effect of TT-10 (FIG. 1A) on cardiomyocyte cell cycle activity and proliferation was determined by culturing human induced pluripotent stem cell-derived cardiomyocytes (hiPSC-CMs) in varying concentrations of TT-10 (0, 2 μM, 10 μM, 20 μM or 100 μM) for 48 hours and then evaluating the presence of markers for cell proliferation (Ki67 expression, FIG. 1B), S phase (BrdU incorporation, FIG. 1C), and M phase (histone 3 phosphorylation [PH3], FIG. 1D) of the cell cycle and for cytokinesis (Aurora B, FIG. 1E). […] The effect of TT-10 on YAP pathway activity was also evaluated via Western blot (FIG. 7): total Yap levels in hiPSC-CMs treated with or without TT-10 were similar, but phosphorylated Yap (p-Yap) was less abundant in TT-10-treated cells.
Immunofluorescence. […] After staining, analyses were conducted with a fluorescence microscope.

In test [1] the test system is hiPSC-CMs. The test is described as follows: apoptosis of hiPSC-CMs by TUNEL staining. The test is classed as cell-based, human. Particulars: 10 μM TT-10. The method, then: as §1, §2
TUNEL. TUNEL staining was performed with an in situ cell death detection kit (Roche). […] Apoptosis was quantified as the proportion of cells that were TUNEL positive.

Test [2] concerns hiPSC-CMs. The test is described as follows: cell cycle activity and proliferation markers in cultured hiPSC-CMs (immunofluorescence). The test is classed as cell-based, human. The conditions noted are these: TT-10 0, 2, 10, 20 or 100 μM, 48 hours. How it is done:
FIGS. 1A-1E show TT-10 increased cell cycle activity and proliferation in cultured human pluripotent stem sell derived cardiomyocytes (hiPSC-CMs). (FIG. 1A) TT-10 (C11H10FN3OS2; molecular weight, 283.34 Da) contains 4 C═C, 1 C═N, and 1 C═O double bond. Maximum UV/Vis absorbance is approximately 200 nm. (FIGS. 1B-1E) hiPSC-CMs were cultured under standard conditions (—) or treated with varying concentrations of TT-10 (2 μM, 10 μM, 20 μM, or 100 μM) for 48 hours and immunofluorescently stained for the human isoform of cardiac troponin T (hcTnT). Nuclei were identified by staining with 4′,6′-diamidinio-2-phenylindole (DAPI) or with DAPI and Nkx2.5 antibodies. (FIG. 1B) Proliferation was evaluated via immunofluorescence costaining for antigen KI 67 (Ki67) and quantified as the percentage of Ki67-positive cells. (FIG. 1C) hiPSC-CMs in the S phase of the cell cycle were identified via immunofluorescence costaining for bromodeoxyuridine (BrdU) incorporation and quantified as the percentage of BrdU-positive cells. (FIG. 1D) hiPSC-CMs in the M phase of the cell cycle were identified via immunofluorescence costaining for histone 3 phosphorylation (PH3) and quantified as the percentage of PH3-positive cells. (FIG. 1E) hiPSC-CMs undergoing cytokinesis were identified via immunofluorescence costaining for Aurora B (AuB) and quantified as the percentage of AuB-positive cells. Scale bar: 20 μm. All experiments were repeated 5 times. […], 1-way ANOVA with Tukey's correction.
FIGS. 8A-8B show TT-10-NPs promoted proliferation in cultured hiPSC-CMs. hiPSC-CMs were cultured for 48 hours with or without 1 mg/mL coumarin-6-loaded TT-10-NPs (green); then, the cells were immunofluorescently stained for the human isoform of cardiac troponin I (hcTnI, gray), and nuclei were identified via DAPI staining (blue). Internalized NPs are identified with an arrow. Scale bar: 20 μm. (FIG. 8A) Proliferation was evaluated via immunofluorescence costaining for Ki67 and quantified as the percentage of Ki67-positive cells. (FIG. 8B) hiPSC-CMs in the M-phase of the cell cycle were identified via immunofluorescence costaining for PH3 and quantified as the percentage of PH3-positive cells. *P<0.01, Student's t-test; n=5 experiments.
The effect of TT-10 (FIG. 1A) on cardiomyocyte cell cycle activity and proliferation was determined by culturing human induced pluripotent stem cell-derived cardiomyocytes (hiPSC-CMs) in varying concentrations of TT-10 (0, 2 μM, 10 μM, 20 μM or 100 μM) for 48 hours and then evaluating the presence of markers for cell proliferation (Ki67 expression, FIG. 1B), S phase (BrdU incorporation, FIG. 1C), and M phase (histone 3 phosphorylation [PH3], FIG. 1D) of the cell cycle and for cytokinesis (Aurora B, FIG. 1E). […]

For the next test, the system named is YAP signaling pathway. As to the kind of experiment: YAP and phosphorylated YAP abundance by Western blot in hiPSC-CMs. The class given is cell-based, human. The conditions noted are these: 10 μM TT-10, 48 hours, with vs without TT-10. The method, then: as §2
Western blot. hiPSC-CMs were lysed with M-PER Mammalian Protein Extraction Reagent (Thermo Fisher Scientific) supplemented with Halt Protease and Phosphatase Inhibitor Cocktail (Thermo Fisher Scientific). Extracted protein was quantified by BCA protein assay kit (Thermo Fisher Scientific) and denatured by heating at 95° C. for 10 minutes. Equal quantity of protein were loaded and separated by 4%-15% precast SDS-PAGE gels (Bio-Rad), and then transferred onto a polyvinylidene difluoride membrane (Bio-Rad). […] Protein signals were imaged with a Bio-Rad ChemiDoc System and analyzed by ImageJ. […]
(In western blotting, separated proteins are transferred to a membrane and probed.)

The next test concerns cardiomyocytes. Particulars: cited from earlier work.

Entries after “also recorded” stand apart in the source; their conditions may differ.

On to `C=CCNc1nc(N)c(C(=O)c2ccc(F)s2)s1` [TT-10, (2-(allylamino)-4-aminothiazol-5-yl)(5-fluorothiophen-2-yl)methanone], for which, in the test on mouse MI, the “cardiac function at later time points” value is “did not prevent progressive declines”, the “cardiomyocyte cell cycle activity” value was “promoted”, the infarct size result was “declines in infarct size; also recorded: reduced” and the “measures of cardiac function vs delivery vehicle” value is “significantly better”. In the test on Yap, the “proportion of hiPSC-CMs with Yap-positive nuclei” value was “significantly increased”. The “hiPSC-CM apoptosis (TUNEL staining)” value in the test on hiPSC-CMs [1] was “significantly reduced”. Also, in the test on hiPSC-CMs [2], the “proportion of cells displaying Aurora B (cytokinesis)” value is given as “peaked at 10 to 20 μM TT-10”, the “proportion of cells displaying BrdU incorporation (S phase)” value is “peaked at 10 to 20 μM TT-10”, the “proportion of cells displaying Ki67 (cell proliferation)” value was “peaked at 10 to 20 μM TT-10” and the “proportion of cells displaying histone 3 phosphorylation PH3 (M phase)” value is “peaked at 10 to 20 μM TT-10”. Moreover, in the test on YAP signaling pathway, the “phosphorylated Yap (p-Yap) abundance (Western blot)” value was “less abundant” and the “total Yap levels (Western blot)” value is reported as “similar”. In addition, the “cardiomyocyte survival and proliferation” value in the test with cardiomyocytes is recorded as “promoted”.
